Measurements taken from patent US20180170941A1 (priority 2016, published 2018).
Where two headings read alike, the source gives them in different places.

Target: T1, α5β3γ2 GABAA receptors (Ltk cell membranes) (Homo sapiens, UniProt P18507+P31644)
T1 construct: membranes
Assay: Binding activity of test compounds on GABAAR: inhibition of [3H]Ro15-1788 binding
Description: Tissue culture and Membrane Preparation: The binding was performed on Ltk cells stably expressing GABAA receptors: α1β1γ2, α2β3γ2, α3β3γ2 and α5β3γ2 (provided by Merck Co., NJ, USA). Cells were seeded in 100 mm culture plates in DMEM/F12 medium containing 10% serum and antibiotics in 5% CO2 and allowed to grow for 1-2 days. GABAAR expression was then induced by dexamethasone as follows: 0.5 μM for 1 day for α5 containing and 2μM for 3 days for α1, α2 and α3 containing GABAARs. After induction, cells were collected by scraping into Dulbecco's Phosphate buffered saline (DPBS, pH 7.4, Invitrogen, Carlsbad, Calif., USA) and centrifuged at 150×g for 10 min. The pellet was washed twice by re-suspension and centrifugation. The cell pellets from at least 5 different preps were combined, suspended in the binding assay buffer (50 mM KH2P4; 1 mM EDTA; 0.2 M KCl, pH 7.4) and membranes prepared by sonication (3-5 times, 30 sec) using Branson Sonifier 150 (G.Heinmann, Germany). Protein content was determined using BCA assay (Bio-Rad Labs, Reinach, Switzerland) with Bovine Serum Albumin (Sigma Aldrich, St. Louis, Mo., USA) as the standard. Aliquots were prepared and stored at −20° C. for further use in binding assays.
Ligand Binding: Saturation binding curves were obtained by incubating membranes with increasing concentrations (0.01-8 nM) of [^3H]Ro15-1788 (Flumazepil, 75-85 Ci/mmol, PerkinElmer, MA, USA), with nonspecific binding measured in the presence of 10 μM diazepam.
All binding assays were performed for 1 h at 4° C. in assay buffer. The total assay volume was 0.5 ml containing 0.2 mg/ml protein for α5 and 0.4 mg/ml for α1, α2, and α3 containing GABAAR membranes. Incubations were terminated by filtration through GF/B filters using a 24-Cell Harvestor (Brandel, Gaithersburg, Md., USA) followed by 3 washes with ice-cold assay buffer. Filters were transferred to scintillation vials, 5 ml scintillation liquid added, vortex-mixed and kept in dark. Next day, radioactivity was obtained using a scintillation counter (Beckman Coulter, Brea, Calif., USA). All assays were performed in triplicate.
Data Analyses: Saturation and inhibition curves were obtained using GraphPad Prism software (GraphPad Software, Inc., CA, USA).

[1] = GABA α5 Binding Ki Values, inhibition of [3H]Ro15-1788 binding, reported as ranges
[2] = inhibition of [3H]Ro15-1788 binding, reported as ranges

T1 sequence (P31644 32-462): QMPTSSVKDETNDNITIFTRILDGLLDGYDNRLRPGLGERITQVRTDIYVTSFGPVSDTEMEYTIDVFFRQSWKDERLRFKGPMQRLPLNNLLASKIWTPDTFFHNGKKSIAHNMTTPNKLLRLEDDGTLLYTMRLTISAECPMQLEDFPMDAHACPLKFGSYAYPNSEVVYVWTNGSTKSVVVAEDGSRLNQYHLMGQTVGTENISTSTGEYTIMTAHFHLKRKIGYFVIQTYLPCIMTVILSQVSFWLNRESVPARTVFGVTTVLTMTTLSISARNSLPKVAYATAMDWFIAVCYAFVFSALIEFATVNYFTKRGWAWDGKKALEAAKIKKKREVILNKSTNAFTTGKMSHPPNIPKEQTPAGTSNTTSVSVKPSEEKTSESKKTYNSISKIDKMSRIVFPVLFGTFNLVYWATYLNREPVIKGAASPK
T1 sequence (P28472 26-473 partner): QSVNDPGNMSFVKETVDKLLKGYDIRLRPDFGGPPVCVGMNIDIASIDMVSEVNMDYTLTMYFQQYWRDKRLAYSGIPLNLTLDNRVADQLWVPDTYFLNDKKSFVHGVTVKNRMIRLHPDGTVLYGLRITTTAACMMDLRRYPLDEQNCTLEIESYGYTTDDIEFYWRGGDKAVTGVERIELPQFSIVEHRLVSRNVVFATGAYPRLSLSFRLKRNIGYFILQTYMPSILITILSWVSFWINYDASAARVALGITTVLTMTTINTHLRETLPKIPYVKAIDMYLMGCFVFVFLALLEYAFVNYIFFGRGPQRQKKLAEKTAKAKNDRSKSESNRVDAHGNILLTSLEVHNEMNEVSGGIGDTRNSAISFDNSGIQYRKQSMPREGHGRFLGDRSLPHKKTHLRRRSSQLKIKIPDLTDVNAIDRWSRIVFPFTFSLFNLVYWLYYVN
T1 sequence (P18507 40-475): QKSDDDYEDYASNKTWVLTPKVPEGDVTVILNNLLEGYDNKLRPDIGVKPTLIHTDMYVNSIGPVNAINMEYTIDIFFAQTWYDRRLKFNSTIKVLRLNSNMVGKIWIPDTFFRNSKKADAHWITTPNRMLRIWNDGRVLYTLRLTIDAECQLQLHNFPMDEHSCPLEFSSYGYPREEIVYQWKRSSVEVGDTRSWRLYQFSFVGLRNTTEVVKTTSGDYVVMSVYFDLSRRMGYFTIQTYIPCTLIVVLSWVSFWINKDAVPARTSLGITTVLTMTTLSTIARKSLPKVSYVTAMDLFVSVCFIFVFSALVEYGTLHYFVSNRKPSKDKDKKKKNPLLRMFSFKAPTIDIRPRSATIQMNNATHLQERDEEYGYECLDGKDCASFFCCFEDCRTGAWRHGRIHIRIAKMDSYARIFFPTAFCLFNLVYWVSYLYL

Structure (SMILES) | Ki [1] [nM] | other results
COc1ccc2c(c1)-n1nnc(CN3CCCC3)c1Cc1c(C#N)ncn1-2 [Compound 250] | > 1000 | 
COc1ccc2c(c1)-c1nnc(COC3CCCC3)n1Cc1c(-c3noc(C(C)C)n3)ncn1-2 [Compound 178] | < 100 | 
COc1ccc2c(c1)-n1nnc(Cc3ccccc3)c1Cc1c(C#N)ncn1-2 [Compound 207] | < 100 | 
COc1ccc(C#Cc2ncn3c2Cc2cnnn2-c2cc(OC)ccc2-3)cc1 [Compound 414] | < 100 | 
COc1ccc2c(c1)-n1nnc(Cc3ccccc3Cl)c1Cc1c(C#N)ncn1-2 [Compound 208] | < 100 | 
Cc1noc(-c2ncn3c2Cc2c(Cc4ccccc4)nnn2-c2cc(F)ccc2-3)n1 [Compound 109] | < 100 | 
COCc1nnc2n1Cc1c(C3=N[C@@H](C(C)C)CO3)ncn1-c1ccc(Cl)cc1-2 [Compound 240] | 100 to 1000 | 
COc1ccc2c(c1)-n1nncc1Cc1c(C3=N[C@@H](c4cccc5ccccc45)CO3)ncn1-2 [Compound 370] | 100 to 1000 | 
COCc1nnc2n1Cc1c(COc3cccc(F)c3)ncn1-c1ccc(Cl)cc1-2 [Compound 434] |  | Ki [2]: > 1000 nM
CC#Cc1ncn2c1Cc1cnnn1-c1cc(Cl)ccc1-2 [Compound 416] | < 100 | 
Clc1ccc2c(c1)-c1nnc(COc3ccccc3)n1Cc1c(-c3ncco3)ncn1-2 [Compound 349] | < 100 | 
CCOC(=O)c1ncn2c1Cc1c(C)nnn1-c1cc(F)ccc1-2 [Compound 2] | < 100 | 
COCc1nnc2n1Cc1c(C3=N[C@@H](c4cccc(OC)c4)CO3)ncn1-c1ccc(Cl)cc1-2 [Compound 333] | < 100 | 
COc1ccc2c(c1)-n1nncc1Cc1c(C3=N[C@@H](c4ccc(F)c(C(F)(F)F)c4)CO3)ncn1-2 [Compound 375] | < 100 | 
Cc1cnc(-c2ncn3c2Cc2c(C)nnn2-c2ccccc2-3)nc1 [Compound 146] | 100 to 1000 | 
N#Cc1ncn2c1Cc1c(COc3ccccc3)nnn1-c1cc(Cl)ccc1-2 [Compound 226] | < 100 | 
C#Cc1ncn2c1Cn1c(COCc3ccccc3)nnc1-c1cc(Cl)ccc1-2 [Compound 351] | < 100 | 
CCOC(=O)c1ncn2c1Cc1c(Cc3ccc(F)cc3)nnn1-c1cc(F)ccc1-2 [Compound 46] | < 100 | 
COc1cccc(C#Cc2ncn3c2Cc2cnnn2-c2cc(OC)ccc2-3)c1 [Compound 409] | < 100 | 
Cc1nc(-c2ncn3c2Cc2c(C)nnn2-c2cc(F)ccc2-3)no1 [Compound 145] | < 100 | 
COCc1nnc2n1Cc1c(COCc3ccccc3F)ncn1-c1ccc(Cl)cc1-2 [Compound 431] |  | Ki [2]: > 1000 nM

Structure (SMILES) | Ki [1] [nM] | other results
CCOC(=O)c1ncn2c1Cc1c(Cc3ccccc3)nnn1-c1cc(OC)ccc1-2 [Compound 4] | < 100 | 
CC(C)OCc1nnc2n1Cc1c(/C=C/c3ccccc3)ncn1-c1ccc(Cl)cc1-2 [Compound 446] |  | Ki: > 1000 nM
COc1ccc2c(c1)-c1nnc(COc3cccc4ccccc34)n1Cc1c(-c3noc(C(C)C)n3)ncn1-2 [Compound 177] | < 100 | 
COc1ccc2c(c1)-c1nnc(COC(C)(C)C)n1Cc1c(-c3noc(C(C)C)n3)ncn1-2 [Compound 201] | 100 to 1000 | 
COc1ccc2c(c1)-n1nnc(C)c1Cc1c(-c3ncco3)ncn1-2 [Compound 347] | 100 to 1000 | 
Cc1nnn2c1Cc1c(-c3noc(C(F)(F)F)n3)ncn1-c1ccc(F)cc1-2 [Compound 150] | < 100 | 
Cc1noc(-c2ncn3c2Cc2cnnn2-c2cc(Cl)ccc2-3)n1 [Compound 425] | < 100 | 
CCOC(=O)c1ncn2c1Cc1c(Cc3ccccc3)nnn1-c1cc(F)ccc1-2 [Compound 6] | < 100 | 
COc1ccc2c(c1)-c1nnc(COc3ccccc3)n1Cc1c(-c3noc(C)n3)ncn1-2 [Compound 162] | < 100 | 
COc1ccc2c(c1)-c1nnc(COc3ccc(F)cc3)n1Cc1c(C#N)ncn1-2 [Compound 191] | 100 to 1000 | 
CC(C)c1noc(-c2ncn3c2Cc2cnnn2-c2cc(Cl)ccc2-3)n1 [Compound 426] | < 100 | 
COCc1nnc2n1Cc1c(-c3cc(C)no3)ncn1-c1ccc(Cl)cc1-2 [Compound 233] | < 100 | 
CC(C)[C@H]1COC(c2ncn3c2Cc2cnnn2-c2cc(Cl)ccc2-3)=N1 [Compound 363] | 100 to 1000 | 
CCc1nc(-c2ncn3c2Cc2c(C)nnn2-c2cc(F)ccc2-3)no1 [Compound 155] | < 100 | 
CCOCc1nnc2n1Cc1c(C3=NC(c4ccccc4)CO3)ncn1-c1ccc(Cl)cc1-2 (stereo not shown) [Compound 260] | < 100 | 
CCOC(=O)c1ncn2c1Cc1c(COc3ccc(F)cc3)nnn1-c1cc(OC)ccc1-2 [Compound 10] | < 100 | 
COCc1nnc2n1Cc1c(-c3ncco3)ncn1-c1ccc(C(F)(F)F)cc1-2 [Compound 471] | < 100 | 
COCc1nnc2n1Cc1c(C3=N[C@H](CC(C)C)CO3)ncn1-c1ccc(Cl)cc1-2 [Compound 267] | 100 to 1000 | 
COCc1nnc2n1Cc1c(C3=NCC(C)(C)CO3)ncn1-c1ccc(Cl)cc1-2 [Compound 239] |  | Ki: > 1000 nM
COc1ccc2c(c1)-n1nncc1Cc1c(C#Cc3ccc(C(F)(F)F)cc3)ncn1-2 [Compound 406] | < 100 | 
CCN(CC)Cc1nnn2c1Cc1c(C#N)ncn1-c1ccc(OC)cc1-2 [Compound 252] | > 1000 | 

Structure (SMILES) | Ki [1] [nM] | other results
COCc1nnc2n1Cc1c(C3=NCCO3)ncn1-c1ccc(C(F)(F)F)cc1-2 [Compound 470] | 100 to 1000 | 
Cc1nnn2c1Cc1c(-c3noc(C(C)C)n3)ncn1-c1ccccc1-2 [Compound 133] | < 100 | 
CCOC(=O)c1ncn2c1Cc1c(C)nnn1-c1cc(OC)ccc1-2 [Compound 1] | < 100 | 
CC(C)c1nc(-c2ncn3c2Cn2c(COc4ccccc4)nnc2-c2cc(F)ccc2-3)no1 [Compound 147] | < 100 | 
CCC(=O)c1ncn2c1Cc1c(C)nnn1-c1ccccc1-2 [Compound 125] | 100 to 1000 | 
CC(C)c1nc(-c2ncn3c2Cn2c(COc4ccc(F)cc4)nnc2-c2cc(F)ccc2-3)no1 [Compound 189] | < 100 | 
CCOC(=O)c1ncn2c1Cc1c(C)cnn1-c1cc(OC)ccc1-2 [Compound 7] | < 100 | 
Fc1ccccc1C#Cc1ncn2c1Cc1cnnn1-c1cc(Cl)ccc1-2 [Compound 399] | < 100 | 
COCc1nnc2n1Cc1c(C#CCc3ccccc3)ncn1-c1ccc(Cl)cc1-2 [Compound 346] | < 100 | 
COCc1nnc2n1Cc1c(C3=NCCO3)ncn1-c1ccc(OC(F)(F)F)cc1-2 [Compound 460] | 100 to 1000 | 
COCc1nnc2n1Cc1c(C#Cc3ccccc3C)ncn1-c1ccc(Cl)cc1-2 [Compound 293] | < 100 | 
COCc1nnc2n1Cc1c(C3=N[C@@H](c4ccccc4F)CO3)ncn1-c1ccc(Cl)cc1-2 [Compound 319] | < 100 | 
COc1ccc2c(c1)-c1nnc(COc3cccc(F)c3)n1Cc1c(-c3noc(C(C)C)n3)ncn1-2 [Compound 179] | < 100 | 
CC(C)c1nc(-c2ncn3c2Cn2c(COc4cccnc4)nnc2-c2cc(F)ccc2-3)no1 [Compound 185] | < 100 | 
CCOC(=O)c1ncn2c1Cc1c(C)nnn1-c1ccccc1-2 [Compound 3] | < 100 | 
COCc1nnc2n1Cc1c(-c3nc(-c4ccccc4F)co3)ncn1-c1ccc(Cl)cc1-2 [Compound 323] | < 100 | 
COc1ccc2c(c1)-n1nncc1Cc1c(C#Cc3ccc(OC(F)(F)F)cc3)ncn1-2 [Compound 412] | < 100 | 
CCc1nc(-c2ncn3c2Cc2c(Cc4ccc(F)cc4)nnn2-c2cc(OC)ccc2-3)no1 [Compound 195] | < 100 | 
Cc1nnn2c1Cc1c(Br)ncn1-c1ccc(F)cc1-2 [Compound 136] | 100 to 1000 | 
